According to PMC11783601, “Analogue-Sensitive Inhibition of Histone Demethylases Uncovers Member-Specific Function in Ribosomal Protein Synthesis” (Journal of the American Chemical Society, 2025):

Target: T1, asKDM4A (HA-tagged F185A) in HEK293T cells (Homo sapiens, UniProt O75164, F185A)
T1 construct: we generated the F185A mutation in full-length KDM4A carrying all of the functional domains; host or cells: HEK293T
T1 sequence (O75164 1-1064 F185A): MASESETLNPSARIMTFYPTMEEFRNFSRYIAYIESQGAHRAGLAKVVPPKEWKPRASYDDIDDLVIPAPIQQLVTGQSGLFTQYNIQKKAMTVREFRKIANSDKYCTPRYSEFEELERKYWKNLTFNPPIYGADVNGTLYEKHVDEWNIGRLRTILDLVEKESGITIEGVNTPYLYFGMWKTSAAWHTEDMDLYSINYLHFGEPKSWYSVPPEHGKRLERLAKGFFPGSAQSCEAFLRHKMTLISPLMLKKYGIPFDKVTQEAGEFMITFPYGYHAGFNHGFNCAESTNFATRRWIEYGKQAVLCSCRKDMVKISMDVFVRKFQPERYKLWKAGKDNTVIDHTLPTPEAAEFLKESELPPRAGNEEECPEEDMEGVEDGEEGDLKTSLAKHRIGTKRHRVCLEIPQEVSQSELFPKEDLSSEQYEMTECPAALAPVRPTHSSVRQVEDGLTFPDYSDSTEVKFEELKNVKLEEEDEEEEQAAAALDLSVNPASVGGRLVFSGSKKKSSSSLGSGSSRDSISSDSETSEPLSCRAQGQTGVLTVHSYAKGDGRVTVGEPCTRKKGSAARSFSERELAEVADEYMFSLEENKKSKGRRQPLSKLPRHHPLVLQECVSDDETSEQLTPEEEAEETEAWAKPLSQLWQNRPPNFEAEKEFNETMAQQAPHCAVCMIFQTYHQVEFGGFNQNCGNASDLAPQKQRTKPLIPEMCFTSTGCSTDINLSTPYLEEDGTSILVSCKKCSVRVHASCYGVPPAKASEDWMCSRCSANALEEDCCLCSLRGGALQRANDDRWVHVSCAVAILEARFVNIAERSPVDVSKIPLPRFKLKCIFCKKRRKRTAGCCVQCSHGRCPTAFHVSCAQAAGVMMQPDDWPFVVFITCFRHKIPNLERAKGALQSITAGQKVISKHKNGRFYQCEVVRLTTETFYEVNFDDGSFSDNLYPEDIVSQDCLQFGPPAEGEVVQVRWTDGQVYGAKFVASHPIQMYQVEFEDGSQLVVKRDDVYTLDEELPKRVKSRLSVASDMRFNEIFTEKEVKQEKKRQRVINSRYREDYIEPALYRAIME
Assay: Time-dependent treatment and withdrawal of inhibitor, fixed cell imaging of H3K9me3 and BrdU
Assay type: cell-based
Method: We exploited the reversible mode of action of the allele-specific inhibitor to gain further insights into the temporal regulation of rRNA expression by histone demethylation. We reasoned that withdrawal of the reversible inhibitor from the cell-culture medium would restore the activity of asKDM4A in a temporally defined manner (Figure 8A). HEK293T cells expressing the F185A variant carrying an HA tag were treated with 6B and fixed at various time points. H3K9me3 levels were quantified in HA-positive cells to ensure that only cells with asKDM4A were considered for analysis. Within 3 h of compound treatment, a robust level of H3K9me3 ensued (Figure 8B). Subsequently, the same cells were allowed to grow in inhibitor-free media and examined for histone demethylation by fixed cell imaging.
To investigate if the restoration of H3K9me3 demethylation is directly linked to rRNA activation, cells overexpressing asKDM4A were first treated with 6B for 3 h followed by compound removal and brief exposure to 5FU before being fixed at different time points for immunofluorescence imaging (Figure 8A,C). […] We recorded a steady recovery of BrdU signal, reaching its maximum within 4–5 h postwithdrawal (equivalent to no 6B treatment) (Figure 8C), consistent with reactivation of asKDM4A as observed above. A relatively sluggish 5FU incorporation into rRNA (Figure 8C), compared to the rapid histone demethylation (Figure 8B), is likely due to the time required to assemble active transcriptional machinery at the rRNA promoters following the removal of the silencing H3K9me3 mark. Achieving such precise temporal control of protein function would be challenging using genetic tools. Collectively, employing the mutant and cognate inhibitor pair, we mapped a highly dynamic signaling pathway linking KDM4A-mediated locus-specific histone demethylation with upregulation of rRNA expression to modulate downstream processes such as ribosomal assembly and protein synthesis. […]
19. Fixed cell immunofluorescence staining
Cells were grown on poly-D-lysine (Gibco A3890401) treated glass coverslips (ThermoScientific 12-545-81P) overnight and transfected the next day with 300 ng KDM4A WT/F185A using […] of lipofectamine 2000 (Invitrogen 11668019). The cells were incubated overnight and treated with indicated inhibitor at varying time points. When probing rRNA transcription, cells were incubated with 2 mM 5-Fluorouridine (Sigma F5130) for 15 minutes. Cells were washed three times with phosphate buffered saline (PBS) at pH 7.6 (Corning 21040CV), fixed with 2% paraformaldehyde in PBS (ThermoFisher AAJ19943K2) for 15 minutes at room temperature, washed with PBS three times, and permeabilized with 0.1% tritonX (Fisher BP151-100) in PBS for 15 minutes. Next, coverslips were blocked with 2% Bovine Serum Albumin (BSA Fisher BP1600-100) in PBS for 1 hour at room temperature, coverslips were incubated with primary antibody diluted in 0.5% BSA PBS (anti-H3K9me3: Cell Signaling Technology cat: 13969S host:rabbit 1:1000; anti-HA: Cell Signaling Technology host:mouse, cat: 2367S or host:rabbit, cat: […]
hour at room temperature, then incubated with secondary antibodies diluted in 0.5% BSA PBS (anti-mouse—488: Invitrogen host: goat, cat: A-11001 or anti-rabbit—cy3: Invitrogen host: goat, […]
cat: A10520, both dilutions 1:1000), between each step coverslips were washed five times with 0.5% BSA PBS. The nuclei were stained with Hoechst stain 0.01 mg/mL in H2O (Sigma B2883-25MG) for 30 seconds, washed with PBS and finally adhered to a slide with gelvatol. The cells were imaged at University of Pittsburgh Center for Biological Imaging on an Olympus Fluoview […]
20. Quantification of fixed-cell imaging data
TIF images obtained from confocal microscopy experiments were quantified in ImageJ. Images were converted to 8-bit images and then thresholded to remove background signal. All images within the same experiment used the same threshold values. For concentration dependent imaging […]

[1] = HEK293T cells expressing KDM4A-F185A, 6B for 3 h then withdrawal

For CC(C)CC(NC(=O)C(=O)OCc1cccc(C(F)(F)F)c1)C(=O)O [6B, L-Leu TFMB-ester NOG], the “time of compound treatment until a robust level of H3K9me3 ensued” value (HA-positive HEK293T cells expressing F185A) was “up to 3 h”, the “5FU incorporation after compound withdrawal” value [1] was “gradual increase in 5FU incorporation” and the “H3K9me3 after compound withdrawal” value [1] was “rapid H3K9me3 demethylation”. For the same molecule, the “time postwithdrawal until BrdU signal reached its maximum” value (after 3 h 6B treatment and removal, equivalent to no 6B treatment) was 4 to 5 h, the “BrdU signal (5FU incorporation)” value (cells overexpressing asKDM4A treated with 6B for 3 h) was “significant decrease in BrdU signal” and the “time after compound removal until asKDM4A regained its demethylase activity” value (inhibitor-free media, activity increased for up to 3 h) was at most 1 h.
